This passage reports IC50 and MIC results from patent US20210246115A1 (Bioimics AB, priority 2017, published 2021).

pIC50: −log10 of the molar value. In brackets after ≈: the same amount, converted by molar mass. Where a name gives a salt, the structure may show the parent alone.

For test [1], the system named is E. coli RNase P RNA, M1 RNA. Briefly: Inhibition of bacterial RNase P activity, IC50 determination (cleavage of pATSerUG by M1 RNA). The test is classed as biochemical. The settings on record: NI: No inhibition.
Test [2] concerns Escherichia coli (ATCC25922). Briefly: MIC, broth microdilution (CLSI), Escherichia coli. The settings on record: Escherichia coli, ATCC25922, read-out: E. coli ATCC 25922 MIC, Table XIII.
For test [3], the system named is Staphylococcus aureus (ATCC25923). The experiment in a line: MIC, broth microdilution (CLSI), Staphylococcus aureus ATCC25923. As to conditions: Staphylococcus aureus, ATCC25923, read-out: S. aureus ATCC 25923 MIC.
Description: Initial minimal inhibitory concentration (MIC) tests were made on two bacterial strains: • Escherichia coli (ATCC25922) • Staphylococcus aureus (ATCC25923).
MIC values were determined using the standard broth microdilution procedure based on the guidelines by the Clinical and Laboratory Standards Institute (CLSI). Briefly, the compounds were dissolved in DMSO to 10 mM. They were diluted in cation-adjusted Mueller-Hinton broth (CAMHB) to four times the highest concentration tested. A serial two-fold dilution in CAMHB was done in microdilution plates. The inoculum of bacterial strain to be tested was prepared by making a suspension of colonies from an 18 to 24 hours old plate in CAMHB. The inoculum was diluted so that, after inoculation, each well contained approximately 5×10^5 CFU/mL. To a volume of 50 μl compound in CA 3 an equal volume of inoculum was added. The tray was sealed in a plastic bag and incubated at 35° C. for 16 to 20 hours. To aid in the detection of growth the dye resazurin was added to a final concentration 0.001% and incubated at room temperature for 1 h. Reduction of resazurin, and therefore bacterial growth, was seen as a change from blue to pink.

As for `Cc1cccc(C(CC(=O)N[C@H]2CC[C@@H](N)CC2)c2cn(CC3CCCCC3)c3ccccc23)c1.Cl` (stereo partly drawn) [Compound 114, N-((1s,4s)-4-aminocyclohexyl)-3-(1-(cyclohexylmethyl)-1H-indol-3-yl)-3-(m-tolyl)propanamide hydrochloride salt], the negative logarithm of the IC50 (pIC50) in test [1] is 4.85. In addition, the minimal inhibitory concentration (MIC) in test [2] was determined as 64 µg/mL; in test [3] it was 8 µg/mL.

`CC(C)C(CC(=O)N[C@H]1CC[C@H](N)CC1)c1cn(CC2CCCCC2)c2ccccc12.Cl` (stereo partly drawn) [Compound 131, N-((1R,4R)-4-aminocyclohexyl)-3-(1-(cyclohexylmethyl)-1H-indol-3-yl)-4-methylpentanamide hydrochloride salt] showed a pIC50 in test [1] of 4.03. In addition, the MIC in test [2] was 128 µg/mL; in test [3] it was 32 µg/mL.

The compound `Cc1cccc(-c2ccc3c(c2)c(CCC(=O)NC2CCC(N)CC2)cn3CC2CCCCC2)c1.Cl` (stereo not drawn) [Compound 144, N-((1s,4s)-4-aminocyclohexyl)-3-(1-(cyclohexylmethyl)-5-(m-tolyl)-1H-indol-3-yl)propanamide hydrochloride salt] gave a pIC50 in test [1] of 5.12. The MIC in test [2] is 64 µg/mL; in test [3], 4 µg/mL.

For the compound `N[C@H]1CC[C@H](NC(=O)C2CCN(Cc3cn(CC4CCCCC4)c4ccc(Br)cc34)CC2)CC1` [Compound 272, N-((1R,4R)-4-aminocyclohexyl)-1-((5-bromo-1-(cyclohexylmethyl)-1H-indol-3-yl)methyl)piperidine-4-carboxamide], the pIC50 in test [1] is 3.92. For the same compound, the minimum inhibitory concentration (MIC) was 68 µg/mL (≈ 128 µM) in test [2] and 34 µg/mL (≈ 64.2 µM) in test [3].

Take `Cc1cccc(C(CC(=O)NC2CCCC(N)C2)c2cn(CC3CCCCC3)c3ccccc23)c1.Cl` (stereo not drawn) [Compound 178, N-(3-aminocyclohexyl)-3-(1-(cyclohexylmethyl)-1H-indol-3-yl)-3-(m-tolyl)propanamide hydrochloride salt]: the negative-log IC50 (pIC50) in test [1] was 4.70. The minimal inhibitory concentration (MIC) in test [2] is 65 µg/mL; in test [3], 8 µg/mL.

Consider `Cl.N[C@H]1CC[C@H](NC(=O)CCc2cn(CC3CCCCC3)c3ccc(-c4ccccc4OC(F)(F)F)cc23)CC1` [Compound 231, N-((1R,4R)-4-aminocyclohexyl)-3-(1-(cyclohexylmethyl)-5-(2-(trifluoromethoxy)phenyl)-1H-indol-3-yl) propanamide hydrochloride salt], for which, in test [1], the pIC50 is 5.36. For the same compound, the MIC was over 512 µg/mL in test [2] and 5 µg/mL in test [3].

In test [1], `Cc1cccc(C(CC(=O)NC2CCNCC2)c2cn(CC3CCC(F)(F)CC3)c3ccc(Br)cc23)c1.Cl` (stereo not drawn) [Compound 287, 3-(5-bromo-1-((4,4-difluorocyclohexyl)methyl)-1H-indol-3-yl)-N-(piperidin-4-yl)-3-(m-tolyl)propanamide hydrochloride salt] showed a pIC50 of 4.82. The minimum inhibitory concentration (MIC) was 78 µg/mL in test [2] and 10 µg/mL in test [3].

In test [1], `Cc1cccc(C(CC(=O)NC2CCC(N)CC2)c2cn(CC3CCNCC3)c3ccccc23)c1` [Compound 159, N-((1S,4S)-4-aminocyclohexyl)-3-(1-(piperidin-4-ylmethyl)-1H-indol-3-yl)-3-(m-tolyl)propanamide hydrochloride salt] gave a pIC50 of 3.68. The figures for the MIC in test [2] and in test [3] were over 512 µg/mL and 279 µg/mL, respectively.

As for `Cc1cccc(-c2ccc3c(c2)c(C(=O)N[C@H]2CC[C@H](N)CC2)cn3CC2CCCCC2)c1.Cl` [Compound 269, N-((1r,4r)-4-aminocyclohexyl)-1-(cyclohexylmethyl)-5-(m-tolyl)-1H-indole-3-carboxamide hydrochloride salt], the negative-log IC50 (pIC50) in test [1] was 4.54. Further, the minimum inhibitory concentration (MIC) in test [2] was over 512 µg/mL; in test [3] it was 8 µg/mL.

The compound `Cl.N[C@H]1CC[C@H](NC(=O)CC(c2cccnc2)c2cn(CC3CCCCC3)c3ccccc23)CC1` (stereo partly drawn) [Compound 138, N-((1R,4R)-4-aminocyclohexyl)-3-(1-(cyclohexylmethyl)-1H-indol-3-yl)-3-(pyridin-3-yl)propanamide hydrochloride salt] had a pIC50 in test [1] of 4.02. Besides, the minimal inhibitory concentration (MIC) in test [2] is 128 µg/mL; in test [3], 64 µg/mL.

In the case of `Cc1cccc(C(CC(=O)NCC2CCC(N)CC2)c2cn(CC3CCCCC3)c3ccccc23)c1.Cl` [Compound 180, N-(((1R,4R)-4-aminocyclohexyl)methyl)-3-(1-(cyclohexylmethyl)-1H-indol-3-yl)-3-(m-tolyl)propanamide hydrochloride salt], the negative-log IC50 (pIC50) in test [1] was 4.74. Also, the results for the minimal inhibitory concentration (MIC) in test [2] and in test [3] were 67 µg/mL and 17 µg/mL, respectively.

As to `O=C(CC(c1cn(CC2CCCCC2)c2ccccc12)C1CCNCC1)NC1CCNCC1` (stereo not drawn) [Compound 106, 3-(1-(cyclohexylmethyl)-1H-indol-3-yl)-N,3-di(piperidin-4-yl)propanamide hydrochloride salt], the pIC50 in test [1] is 2.91. In addition, the minimal inhibitory concentration (MIC) in test [2] and in test [3] was 512 µg/mL each time.

In turn, `Cc1cccc(-c2ccc3c(c2)c(CC(=O)NC2CCC(N)CC2)cn3C(=O)C2CCCCC2)c1.Cl` [Compound 259, N-((1S,4S)-4-aminocyclohexyl)-2-(1-(cyclohexanecarbonyl)-5-(m-tolyl)-1H-indol-3-yl)acetamide hydrochloride salt] had a pIC50 in test [1] of 4.70. In addition, the MIC in test [2] is over 512 µg/mL; in test [3] it was 267 µg/mL.

In turn, `Cc1cccc(C(CC(=O)NC2CCNCC2)c2cn(Cc3ccccc3)c3ncccc23)c1.Cl` (stereo not drawn) [Compound 70, 3-(1-benzyl-1H-pyrrolo[2,3-b]pyridin-3-yl)-N-(piperidin-4-yl)-3-(m-tolyl)propanamide hydrochloride salt] had a pIC50 in test [1] of 2.96. In addition, the results for the MIC in test [2] and in test [3] were over 512 µg/mL and 250 µg/mL, respectively.

As for `Cc1cccc(C(CC(=O)N[C@H]2CC[C@H](N)CC2)c2cn(CC3CCCC3)c3ccccc23)c1.Cl` (stereo partly drawn) [Compound 111, N-((1R,4R)-4-aminocyclohexyl)-3-(1-(cyclopentylmethyl)-1H-indol-3-yl)-3-(m-tolyl)propanamide hydrochloride salt], the negative logarithm of the IC50 (pIC50) in test [1] is 5.17. Moreover, the figures for the minimal inhibitory concentration (MIC) in test [2] and in test [3] were 32 µg/mL and 4 µg/mL, respectively.

In turn, `Cl.N[C@H]1CC[C@H](NC(=O)CC(c2cccc(F)c2)c2cn(CC3CCCCC3)c3ccccc23)CC1` (stereo partly drawn) [Compound 137, N-((1R,4R)-4-aminocyclohexyl)-3-(1-(cyclohexylmethyl)-1H-indol-3-yl)-3-(3-fluorophenyl) propanamide hydrochloride salt] had a pIC50 in test [1] of 4.37. In addition, the MIC in test [2] is 32 µg/mL; in test [3], 8 µg/mL.

`Cc1cccc(C(CC(=O)NCCC2CCNCC2)c2cn(Cc3ccccc3)c3ccccc23)c1.Cl` (stereo not drawn) [Compound 55, 3-(1-benzyl-1H-indol-3-yl)-N-(2-(piperidin-4-yl)ethyl)-3-(m-tolyl)propanamide hydrochloride salt]: the negative logarithm of the IC50 (pIC50) in test [1] (hydrochloride salt) is 3.76. Further, the MIC in test [2] was 264 µg/mL; in test [3] it was 66 µg/mL.

In test [1], `NC1CCC(NCCC(c2cccc(F)c2)c2cn(CC3CCCCC3)c3ccccc23)CC1` [Compound 172, (1S,4S)-N1-(3-(1-(cyclohexylmethyl)-1H-indol-3-yl)-3-(3-fluorophenyl)propyl) cyclohexane-1,4-diamine hydrochloride salt] had a pIC50 of 5.00. For the same compound, the minimal inhibitory concentration (MIC) in test [2] and in test [3] was 4 µg/mL in each case.

On to `Cc1cccc(C(CC(=O)NCCC2CCNCC2)c2cn(CC3CCCCC3)c3ccccc23)c1.Cl` (stereo not drawn) [Compound 92, 3-(1-(cyclohexylmethyl)-1H-indol-3-yl)-N-(2-(piperidin-4-yl)ethyl)-3-(m-tolyl)propanamide hydrochloride salt], for which the pIC50 in test [1] was 4.35. Further, the MIC in test [2] was 64 µg/mL; in test [3], 16 µg/mL.

For `COc1ccccc1-c1ccc2c(c1)c(CCC(=O)N[C@H]1CC[C@H](N)CC1)cn2CC1CCCCC1.Cl` [Compound 230, N-((1R,4R)-4-aminocyclohexyl)-3-(1-(cyclohexylmethyl)-5-(2-methoxyphenyl)-1H-indol-3-yl)propanamide hydrochloride salt], the pIC50 in test [1] is 4.96. Further, the minimal inhibitory concentration (MIC) in test [2] is 67 µg/mL; in test [3], 8 µg/mL.

Consider `Cl.N[C@H]1CC[C@H](NC(=O)CC(c2ccc(F)c(F)c2)c2cn(CC3CCCCC3)c3ccccc23)CC1` (stereo partly drawn) [Compound 134, N-((1R,4R)-4-aminocyclohexyl)-3-(1-(cyclohexylmethyl)-1H-indol-3-yl)-3-(3,4-difluorophenyl)propanamide hydrochloride salt], for which, in test [1], the pIC50 is 4.72. Further, the minimum inhibitory concentration (MIC) turned out to be 256 µg/mL in test [2] and 4 µg/mL in test [3].

In the case of `Cl.O=C(CC(c1cscn1)c1cn(CC2CCCCC2)c2ccccc12)NC1CCNCC1` (stereo not drawn) [Compound 101, 3-(1-(cyclohexylmethyl)-1H-indol-3-yl)-N-(piperidin-4-yl)-3-(thiazol-4-yl)propanamide hydrochloride salt], in test [1], the pIC50 was 3.41. Moreover, the MIC in test [2] and in test [3] was 128 µg/mL throughout.

`Cl.N[C@H]1CC[C@H](NC(=O)CC(c2cc(Cl)cc(Cl)c2)c2cn(CC3CCCCC3)c3ccccc23)CC1` (stereo partly drawn) [Compound 136, N-((1r,4r)-4-aminocyclohexyl)-3-(1-(cyclohexylmethyl)-1H-indol-3-yl)-3-(3,5-dichlorophenyl) propanamide hydrochloride salt] had a negative-log IC50 (pIC50) in test [1] of 5.05. Moreover, the MIC in test [2] was over 512 µg/mL; in test [3] it was 64 µg/mL.

The compound `Cl.N[C@H]1CC[C@H](NC(=O)CC(c2cn(CC3CCCCC3)c3ccccc23)C2CCOCC2)CC1` (stereo partly drawn) [Compound 132, N-((1R,4R)-4-aminocyclohexyl)-3-(1-(cyclohexylmethyl)-1H-indol-3-yl)-3-(tetrahydro-2H-pyran-4-yl)propanamide hydrochloride salt] showed a pIC50 in test [1] of 3.72. Moreover, the minimum inhibitory concentration (MIC) is over 512 µg/mL in test [2] and 128 µg/mL in test [3].
